Data reported in patent publication US8889712B2, “IAP antagonists” (Bristol-Myers Squibb Company, priority 2012, dated 2014).
Counter-ions that a name gives are not always drawn. Like-named read-outs stand apart in the source and are kept apart here.

Experiments:
XIAP BIR3 = molecular target: T1, XIAP BIR3 (Homo sapiens, UniProt P98170); assay: XIAP-BIR3/SMAC Homogeneous Time Resolved Fluorescence (HTRF) Assay; type: binding
T1 construct: His-BIR3 (241-356, XIAP)
How it was run: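 Competition HTRF between XIAP-BIR3 and SMAC; reaction 60 min at room temperature, then anti-6×His-terbium Fab detection for a further 30 min.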

XIAP BIR2-3 = molecular target: T2, XIAP BIR2-3 (Homo sapiens, UniProt P98170, C202A/C213G); assay: XIAP-BIR2-3 dimeric SMAC Peptide Homogeneous Time Resolved Fluorescence (HTRF) Assay; type: binding
T2 construct: His-BIR2-3 (125-356, C202A/C213G, XIAP)
T2 sequence (P98170 125-356 C202A/C213G): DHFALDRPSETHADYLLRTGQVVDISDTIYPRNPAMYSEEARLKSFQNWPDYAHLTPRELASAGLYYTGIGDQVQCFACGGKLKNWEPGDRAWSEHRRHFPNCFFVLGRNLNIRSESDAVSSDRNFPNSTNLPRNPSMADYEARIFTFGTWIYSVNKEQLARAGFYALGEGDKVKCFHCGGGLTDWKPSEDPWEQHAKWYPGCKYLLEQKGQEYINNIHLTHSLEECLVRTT
Protocol: B. […] Assays were performed in black, flat-bottom, 384-well plates. […] Compounds were dissolved at 3 mM in dimethylsulfoxide (DMSO) and evaluated at eleven serially diluted concentrations. IC50 and Ki values were derived by non-linear regression analysis.

[1] = 1 nM N-His-BIR3 (241-356, XIAP), 5 nM fluorescein labeled SMAC peptide, HTRF signal, read-out: XIAP BIR3 IC50
[2] = 0.5 nM N-His-BIR2-3 (125-356, C202A/C213G, XIAP), 20 nM fluorescein labeled dimeric SMAC peptide, HTRF signal, read-out: XIAP BIR2-3 IC50

T1 sequence (P98170 241-356): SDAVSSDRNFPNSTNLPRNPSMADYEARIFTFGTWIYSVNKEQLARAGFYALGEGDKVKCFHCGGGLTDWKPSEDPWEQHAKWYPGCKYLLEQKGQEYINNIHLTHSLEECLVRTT

| IC50 (XIAP BIR3; [1]) [nM] | IC50 (XIAP BIR2-3; [2]) [nM] | Compound | IC50 (XIAP BIR3) [nM] | IC50 (XIAP BIR2-3) [nM] |
| --- | --- | --- | --- | --- |
| 13.5 | 2.6 | CN[C@@H](C)C(=O)N[C@H](C(=O)N1C[C@@H](c2ccc3c(c2)CN(C(=O)[C@@H](NC(=O)[C@H](C)NC)C(C)(C)C)[C@H](C(=O)N[C@@H]2CCCc4ccccc42)C3)C[C@H]1C(=O)N[C@@H](Cc1ccccc1)c1ncc(C)o1)C(C)(C)C [Example 81, (S)-2-((S)-3,3-Dimethyl-2-((S)-2-(methylamino)propanamido)butanoyl)-7-((3R,5S)-1-((S)-3,3-dimethyl-2-((S)-2-(methylamino)propanamido)butanoyl)-5-(((S)-1-(5-methyloxazol-2-yl)-2-phenylethyl)carbamoyl)pyrrolidin-3-yl)-N—((R)-1,2,3,4-tetrahydronaphthalen-1-yl)-1,2,3,4-tetrahydroisoquinoline-3-carboxamide] | – | – |
| 111 | 68.2 | CN[C@@H](C)C(=O)N[C@H](C(=O)N1Cc2cc([C@H]3C[C@@H](C(=O)N[C@@H](Cc4ccc5ccccc5c4)C(=O)OC)N(C(=O)[C@@H](NC(=O)[C@H](C)NC)C(C)(C)C)C3)ccc2C[C@H]1C(=O)N[C@@H](Cc1ccc2ccccc2c1)C(=O)OC)C(C)(C)C [Example 82, (S)-Methyl 2-((2S,4R)-1-((S)-3,3-dimethyl-2-((S)-2-(methylamino)propanamido)butanoyl)-4-((S)-2-((S)-3,3-dimethyl-2-((S)-2-(methylamino)propanamido)butanoyl)-3-(((S)-1-methoxy-3-(naphthalen-2-yl)-1-oxopropan-2-yl)carbamoyl)-1,2,3,4-tetrahydroisoquinolin-7-yl)pyrrolidine-2-carboxamido)-3-(naphthalen-2-yl)propanoate] | – | – |
| 19.2 | 26.2 | CN[C@@H](C)C(=O)N[C@H](C(=O)N1Cc2cc([C@H]3C[C@@H](C(=O)N[C@@H](Cc4ccc5ccccc5c4)C(=O)O)N(C(=O)[C@@H](NC(=O)[C@H](C)NC)C(C)(C)C)C3)ccc2C[C@H]1C(=O)N[C@@H](Cc1ccc2ccccc2c1)C(=O)O)C(C)(C)C [Example 83, (S)-2-((S)-7-((3R,5S)-5-(((S)-1-Carboxy-2-(naphthalen-2-yl)ethyl)carbamoyl)-1-((S)-3,3-dimethyl-2-((S)-2-(methylamino)propanamido)butanoyl)pyrrolidin-3-yl)-2-((S)-3,3-dimethyl-2-((S)-2-(methylamino)propanamido)butanoyl)-1,2,3,4-tetrahydroisoquinoline-3-carboxamido)-3-(naphthalen-2-yl)propanoic acid] | – | – |
| 31.4 | 8.1 | CN[C@@H](C)C(=O)N[C@H](C(=O)N1Cc2cc([C@H]3C[C@@H](C(=O)N[C@H](COC)Cc4ccccc4)N(C(=O)[C@@H](NC(=O)[C@H](C)NC)C(C)(C)C)C3)ccc2C[C@H]1C(=O)N[C@H](COC)Cc1ccccc1)C(C)(C)C [Example 84, (S)-2-((S)-3,3-Dimethyl-2-((S)-2-(methylamino)propanamido)butanoyl)-7-((3R,5S)-1-((S)-3,3-dimethyl-2-((S)-2-(methylamino)propanamido)butanoyl)-5-(((S)-1-methoxy-3-phenylpropan-2-yl)carbamoyl)pyrrolidin-3-yl)-N-((S)-1-methoxy-3-phenylpropan-2-yl)-1,2,3,4-tetrahydroisoquinoline-3-carboxamide] | – | – |
| – | – | CN[C@@H](C)C(=O)N[C@H](C(=O)N1Cc2cc([C@H]3C[C@@H](C(=O)N[C@@H](Cc4ccccc4)C(=O)OC)N(C(=O)[C@@H](NC(=O)[C@H](C)NC)C(C)(C)C)C3)ccc2C[C@H]1C(=O)N[C@@H](Cc1ccccc1)C(=O)OC)C(C)(C)C [Example 85, (S)-Methyl 2-((2S,4R)-1-((S)-3,3-dimethyl-2-((S)-2-(methylamino)propanamido)butanoyl)-4-((S)-2-((S)-3,3-dimethyl-2-((S)-2-(methylamino)propanamido)butanoyl)-3-(((S)-1-methoxy-1-oxo-3-phenylpropan-2-yl)carbamoyl)-1,2,3,4-tetrahydroisoquinolin-7-yl)pyrrolidine-2-carboxamido)-3-phenylpropanoate] | 14.8 | 6.2 |
| 5 | 2.7 | CN[C@@H](C)C(=O)N[C@H](C(=O)N1Cc2cc([C@H]3C[C@@H](C(=O)N[C@@H](Cc4ccccc4)C(=O)O)N(C(=O)[C@@H](NC(=O)[C@H](C)NC)C(C)(C)C)C3)ccc2C[C@H]1C(=O)N[C@@H](Cc1ccccc1)C(=O)O)C(C)(C)C [Example 86, (S)-2-((S)-7-((3R,5S)-5-(((S)-1-Carboxy-2-phenylethyl)carbamoyl)-1-((S)-3,3-dimethyl-2-((S)-2-(methylamino)propanamido)butanoyl)pyrrolidin-3-yl)-2-((S)-3,3-dimethyl-2-((S)-2-(methylamino)propanamido)butanoyl)-1,2,3,4-tetrahydroisoquinoline-3-carboxamido)-3-phenylpropanoic acid] | – | – |
| 7.3 | 5.9 | CN[C@@H](C)C(=O)N[C@H](C(=O)N1CC(c2ccc3c(c2)CN(C(=O)[C@@H](NC(=O)[C@H](C)NC)C24CC5CC(CC(C5)C2)C4)[C@H](C(=O)NC2CCCc4ccccc42)C3)C[C@H]1C(=O)NC1CCCc2ccccc21)C(C)(C)C (stereo partly drawn) [Example 87, (S)-2-((S)-2-((3S,5S,7S)-Adamantan-1-yl)-2-((S)-2-(methylamino)propanamido)acetyl)-7-((3R,5S)-1-((S)-3,3-dimethyl-2-((S)-2-(methylamino)propanamido)butanoyl)-5-(((R)-1,2,3,4-tetrahydronaphthalen-1-yl)carbamoyl)pyrrolidin-3-yl)-N—((R)-1,2,3,4-tetrahydronaphthalen-1-yl)-1,2,3,4-tetrahydroisoquinoline-3-carboxamide, 2 TFA] | – | – |
| 9 | 2.6 | CN[C@@H](C)C(=O)N[C@H](C(=O)N1C[C@@H](NC(=O)c2ccc3c(c2)CN(C(=O)[C@@H](NC(=O)[C@H](C)NC)C24CC5CC(CC(O)(C5)C2)C4)[C@H](C(=O)NC2CCCc4ccccc42)C3)C[C@H]1C(=O)NC1CCCc2ccccc21)C(C)(C)C (stereo partly drawn) [Example 88, (S)-N^7-((3S,5S)-1-((S)-3,3-dimethyl-2-((S)-2-(methylamino)propanamido)butanoyl)-5-(((R)-1,2,3,4-tetrahydronaphthalen-1-yl)carbamoyl)pyrrolidin-3-yl)-2-((S)-2-((1r,3R,5R,7S)-3-hydroxyadamantan-1-yl)-2-((S)-2-(methylamino)propanamido)acetyl)-N^3-((R)-1,2,3,4-tetrahydronaphthalen-1-yl)-1,2,3,4-tetrahydroisoquinoline-3,7-dicarboxamide] | – | – |
| 37.8 | 360 | CN[C@@H](C)C(=O)N[C@H](C(=O)N1Cc2cc(C(=O)N[C@H]3C[C@@H](C(=O)N[C@@H]4CCCc5ccccc54)N(C(=O)[C@@H](NC(=O)[C@H](C)NC)C(C)(C)C)C3)ccc2C[C@H]1C(=O)N[C@@H]1CCCc2ccccc21)C(c1ccccc1)c1ccccc1 [Example 89, (S)-N^7-((3S,5S)-1-((S)-3,3-dimethyl-2-((S)-2-(methylamino)propanamido)butanoyl)-5-(((R)-1,2,3,4-tetrahydronaphthalen-1-yl)carbamoyl)pyrrolidin-3-yl)-2-((S)-2-((S)-2-(methylamino)propanamido)-3,3-diphenylpropanoyl)-N^3-((R)-1,2,3,4-tetrahydronaphthalen-1-yl)-1,2,3,4-tetrahydroisoquinoline-3,7-dicarboxamide] | – | – |

| Compound | IC50 (XIAP BIR3; [1]) [nM] | IC50 (XIAP BIR2-3; [2]) [nM] | IC50 (XIAP BIR3) [nM] | IC50 (XIAP BIR2-3) [nM] |
| --- | --- | --- | --- | --- |
| (S)-2-((S)-3-Cyclopentyl-2-((S)-2-(methylamino) propanamido)propanoyl)-N^7-((3S,5S)-1-((S)-3,3-dimethyl-2- ((S)-2-(methylamino)propanamido)butanoyl)-5-(((R)-1,2,3,4- tetrahydronaphthalen-1-yl)carbamoyl)pyrrolidin-3-yl)-N^3- ((R)-1,2,3,4-tetrahydronaphthalen-1-yl)-1,2,3,4- tetrahydroisoquinoline-3,7-dicarboxamide [Example 6] | 14 | 2 | – | – |
